Experimental data as given in patent US20140242019A1, “COMPOSITION FOR PREVENTING HAIR LOSS AND GROWING HAIR COMPRISING HYDROXYDIHYDROBOVOLIDE” (Pukyong National University Industry-University Cooperation …, priority 2013, published 2014).
Entries after “also recorded” stand apart in the source; their conditions may differ.

Tests used:
[1] = system: human hair follicle dermal papilla cells; test: MTT cell proliferation / survival rate in human hair follicle dermal papilla cells; format: cell-based; conditions: 24 h
Method: (§1) All of the tests were performed after obtaining approval of Ethics Commission of Medical College, Kyungpook National University. As samples of hairs, hairs in intact state were collected from scalps in the backs of the heads of male hair transplant patients. All of the hair samples were used with the consent of hair transplant patient who provides the samples. The area of subcutaneous fat of scalp including a hair follicle was isolated from the hair sample, and then the hair follicle was isolated by using a binocular microscope. In order to obtain hair papilla cells, the hair papilla was isolated from the hair follicle, and then shifted to a dish that was coated with bovine type I collagen. Then, the hair papilla in the dish was cultured (in an incubator at 37° C. and 5% CO2) in a DEME (Gibco BRL, Gaithersburg. Md., USA) medium including 20% heat inactivated fetal bovine serum including penicillin (100 U/mL) and streptomycin ([…]). […]
(§2) It was investigated whether or not the hydroxydihydrobovolide compound according to the present invention has an effect on cell proliferation in hair follicle cells and cells in the outer root sheath, in which the cells were closely associated with hair growth. […] After 30 minutes, absorbance of the cells was measured (570 nm).

[2] = system: hair outer root sheath cells; test: MTT cell proliferation / survival rate in hair outer root sheath cells; format: cell-based, human; conditions: 24 h
Method: as §1, §2

human hair tissues = test: Evaluation of hair growth using human hair tissue culture; format: cell-based; conditions: 5 μM
Method: The human hair tissues were supplied from an immunology laboratory in Kyungpook National University. The human hair tissues were cultured in an incubator at 37° C. and CO2 by using Williams E media (Sigma, USA) including 2 mM L-glutamin, 100 U/mL of streptomycin, and 10 ng/ml of hydrocortisone. The test materials with various concentrations were cultured for 6 days, and the lengths of hairs were measured on the third days and sixth day.

CCCCCC1(O)OC(=O)C(C)=C1C (stereo not drawn) [hydroxydihydrobovolide, 5-hydroxy-3,4-dimethyl-5-pentylfuran-2(5H)-one]
cell proliferation increased by ([1]; 0.05 μM, vs untreated control group, p<0.05): 144% | effect on cell proliferation compared with control group ([1]; 0.005 to 0.5 μM): significant cell proliferation effect; also recorded: significant effects on cell proliferation | cell proliferation increased by ([2]; 0.5 μM, vs control group, highest effect): 156% | cell proliferation compared with control group ([2]; 0.005 to 0.5 μM): significantly higher cell proliferation rate than the control group; also recorded: significantly higher than that of the control group | length of hair on the third day (human hair tissues; day 3 of culture): 0.62 mm | length of hair on the sixth day (human hair tissues; day 6 of culture): 1.38 mm
